Laboratory results from US8980904B2, “Heterocyclic substituted pyrimidine compound” (Xuanzhu Pharma Co., Ltd., priority 2011, dated 2015).
Values joined by “and” are separate entries in the source; they are usually repeats but may differ in a detail not shown here. Identical values can stand only once. Like-named read-outs stand apart in the source and are kept apart here.

Key:
PDE-5A = PDE-5A (Homo sapiens (Human), UniProt O76074); experiment: Caliper Mobility-Shift PDE-5A Assay; format: biochemical
Method: Caliper Mobility-Shift PDE-5A Assay:
A sample to be tested is precisely weighed, dissolved by adding DMSO, mixed sufficiently to form 10 mM solution.
The maximum final concentration of the compound was 10 μM. After incubation at 30° C. for 1 h, 20 μl of 70 μM EDTA was added to terminate reaction. Substrate and products were separated and analyzed by electrophoresis. Conversion rate was calculated by Caliper's Reviewer software, and inhibition rate was calculated by the following formulation, and IC50 was calculated from inhibition rate using Prism 5.0. Inhibition rate=[conversion rate (ZPE)−conversion rate (sample)]×100/[conversion rate (ZPE)−conversion rate (HPE)]
Notation: HPE: blank control without adding enzyme; ZPE: blank control without adding compound.

New Zealand rabbits = experiment: Effects on penis length (AUC) by intravenous administration in New Zealand rabbits; format: in vivo; details: 10 mg/kg IV, sodium nitroprusside 0.2 mg/kg IV 5 min after administration
Text: New Zealand rabbits were subjected to adapt environment, and the rabbits were catched everyday before experiment so that the rabbits were used to repeated catching operation, then administration and stimulation were lunched. The animals were randomly divided according to bodyweight, samples to be tested were separately dissolved with solvent (Table 3 group: Avanafil and Compound 19 were separately dissolved with 5% DMSO+30% Cremophor EL+65% water for injection; Table 4 group, Table 5 group: Avanafil, Compound 14, Compound 17 and Compound 7 were separately dissolved with 45% DMA+20% Cremophor EL+35% water for injection; Table 6 group: Avanafil and Compound 15 were separately dissolved with 30% DMF+50% PEG-400+20% water for injection), corresponding samples to be tested were injected via ear flange veins of these groups, Table 3, Table 4, Table 5, Table 6 groups all had dose of 10 mg/kg, administration volume of 2 ml/kg, 0.2 mg/kg of sodium nitroprusside was intravenously injected in administration volume of 0.5 ml/kg after 5 min of administration.
Lengths of penis of rabbits were measured by digital vernier caliper separately before administration and at 5, 10, 15, 30, 50, 60, 90 and 120 min after administration. During each measurement, touching between penis and vernier caliper should be avoided.

PDE-6 = details: background art, cited from earlier work
[1] = cited from earlier work
PDE-11 = PDE-11 (Homo sapiens (Human), UniProt Q9HCR9); details: background art; cited from earlier work
Chain of PDE-11 (Q9HCR9 whole entry): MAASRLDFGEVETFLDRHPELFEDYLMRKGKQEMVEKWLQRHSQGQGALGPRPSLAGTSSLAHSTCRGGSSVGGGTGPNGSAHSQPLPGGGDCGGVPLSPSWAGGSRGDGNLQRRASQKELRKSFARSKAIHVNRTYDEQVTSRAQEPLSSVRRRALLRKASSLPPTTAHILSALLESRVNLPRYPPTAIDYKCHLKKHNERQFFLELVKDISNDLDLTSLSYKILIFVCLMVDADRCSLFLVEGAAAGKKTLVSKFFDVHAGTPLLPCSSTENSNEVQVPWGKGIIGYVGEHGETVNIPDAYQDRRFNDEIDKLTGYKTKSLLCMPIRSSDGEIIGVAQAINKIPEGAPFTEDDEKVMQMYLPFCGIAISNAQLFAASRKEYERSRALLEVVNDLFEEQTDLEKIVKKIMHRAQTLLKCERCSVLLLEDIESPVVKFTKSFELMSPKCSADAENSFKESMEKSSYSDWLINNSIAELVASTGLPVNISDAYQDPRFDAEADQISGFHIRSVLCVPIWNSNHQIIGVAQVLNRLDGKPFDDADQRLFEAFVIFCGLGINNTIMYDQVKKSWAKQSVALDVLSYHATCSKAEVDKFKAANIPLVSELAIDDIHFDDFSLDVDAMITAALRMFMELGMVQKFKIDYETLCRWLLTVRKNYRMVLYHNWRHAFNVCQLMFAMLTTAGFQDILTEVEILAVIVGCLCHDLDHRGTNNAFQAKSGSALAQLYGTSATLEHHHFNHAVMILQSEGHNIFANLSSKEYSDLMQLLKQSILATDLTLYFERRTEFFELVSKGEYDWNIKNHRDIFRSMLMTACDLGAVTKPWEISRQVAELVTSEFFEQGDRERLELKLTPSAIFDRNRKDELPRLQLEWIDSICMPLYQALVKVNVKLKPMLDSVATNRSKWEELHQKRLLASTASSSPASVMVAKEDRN

[2] = Determination of half-life in SD rats (IV and PO, plasma LC-MS/MS); details: Sprague-Dawley (SD), rat
Method: (§1) Avanafil as control drug and the compounds of the present invention (self-made) were dissolved with suitable solvents.
Instruments: API4000 LC-MS/MS
(§2) Chromatography column: Agilent XDB C18 (2.1×50 mm, 5 μm)
(§3) Blood sampling in rats: animals were fixed, tails were heated with water-bath at 10 min before each time point, about 100 μl of blood was collected via caudal vein, and the collected blood samples were placed in heparin sodium-containing anticoagulation tubes. The blood samples were centrifuged at 4° C. and 8,000 rpm for 6 min to obtain blood plasma samples, in which the blood plasma samples should be prepared with 30 min after blood sampling. The blood plasmas were stored in refrigerator with −80° C.
(§4) (1) Samples to be tested were taken out from refrigerator (−80° C.), melt at room temperature, then subjected to volution for 5 min;
(§5) (2) 20 μl of sample was precisely moved to 1.5 ml centrifuge tube;
(§6) (3) 200 μl of internal standard solution was added;
(§7) (4) After 5 min of volution, 5 min of centrifugation (12,000 rpm) was carried out;
(§8) (5) 100 μl of supernatant was precisely taken, 100 μl of water was added, subjected to volution for 5 min, and analyzed by LC-MS/MS.
(§9) Concentrations of samples to be tested (blood plasma samples) were the output results of Analyst 1.5.1 of AB SCIEX (Shanghai Aibocaisi Analytical Instruments Trading Co., Ltd.). Mean values, standard deviations and parameters such as variable coefficients were calculated by Microsoft Excel (when parameters were directly given by Analyst 1.5.1, they were not calculated). PK parameters were calculated using Pharsight Phoenix 6.1 software.

[3] = rat, in vivo, 2 mg/kg
Method: as §1
Instruments: API4000 LC-MS/MS
as §2, §3, §4, §5, §6, §7, §8, §9

in vivo = details: Sprague-Dawley (SD), rat, iv, 1 mg/kg
Method: as §1
Instruments: API4000 LC-MS/MS
as §2, §3, §4, §5, §6, §7, §8, §9

[4] = Table 3 group, 5% DMSO+30% Cremophor EL+65% water for injection
[5] = Table 4 group, 45% DMA+20% Cremophor EL+35% water for injection
[6] = Table 5 group, 45% DMA+20% Cremophor EL+35% water for injection
[7] = Table 6 group, 30% DMF+50% PEG-400+20% water for injection
[8] = test compound, read-out: IC50 values for PDE-5A, PDE-5A

| SMILES | IC50 (PDE-5A; [8]) | half-life ([2]; iv, 1 mg/kg) | other results |
| --- | --- | --- | --- |
| COc1ccc(CN=c2[nH]c(N3CCC[C@H]3CO)ncc2C(=O)NCc2ncccn2)cc1Cl [Avanafil, reference compound] |  |  | IC50 (PDE-5A; Avanafil control value given, read-out: IC50 values for PDE-5A, Avanafil/PDE-5A): 10.8 nM (11×) and 19.2 nM and 12.7 nM (2×) and 17.3 nM (4×); Effects on penis length, AUC (mm × min) (New Zealand rabbits; [4]): 155.1 mm × min; Effects on penis length, AUC (mm × min) (New Zealand rabbits; [5]): 132.3 mm × min; Effects on penis length, AUC (mm × min) (New Zealand rabbits; [6]): 168.3 mm × min; Effects on penis length, AUC (mm × min) (New Zealand rabbits; [7]): 146.4 mm × min; ratio of PDE-6/5 (PDE-6; selectivity): about 120; half-life in human body [1]: about 1.2 h; inhibition of PDE-11 (PDE-11): does not inhibit PDE-11; half-life ([2]; iv, 2 mg/kg): 31.8 min; half-life ([2]; po, 2 mg/kg): 30.6 min |
| COc1ccc(COc2nc(N3CC4CC4C3)ncc2C(=O)NCc2ccccc2)cc1Cl (stereo not drawn) [Compound 1, N-benzyl-2-(3-azadicyclo[3.1.0]hexan-3-yl)-4-(3-chloro-4-methoxybenzyloxy) pyrimidine-5-carboxamide] | 0.172 nM | 238 min |  |
| COc1ccc(COc2nc(N3C4CCC3COC4)ncc2C(=O)NCc2ccccc2)cc1Cl [Compound 2, N-benzyl-2-(3-oxa-8-azadicyclo[3.2.1]octan-8-yl)-4-(3-chloro-4-methoxybenzyloxy)pyrimidine-5-carboxamide] | 4.01 nM |  | t1/2 (h) PO [3]: No; half-life (in vivo): 90.6 min |
| COc1ccc(COc2nc(N3CC4CC4C3)ncc2C(=O)NCc2ncccn2)cc1Cl (stereo not drawn) [Compound 3, 2-(3-azadicyclo[3.1.0]hexan-3-yl)-4-(3-chloro-4-methoxy-benzyloxy)-N-(pyrimidin-2-ylmethyl)pyrimidine-5-carboxamide] | 0.1 nM |  |  |
| COc1ccc(COc2nc(N3CC4CC4C3)ncc2C(=O)NCc2ccccn2)cc1Cl (stereo not drawn) [Compound 4, 2-(3-azadicyclo[3.1.0]hexan-3-yl)-4-(3-chloro-4-methoxybenzyloxy)-N-(pyridin-2-ylmethyl)pyrimidine-5-carboxamide] | 0.028 nM | 39.6 min |  |
| COc1ccc(COc2nc(N3CC4CC4C3)ncc2C(=O)NCc2cnc(C)cn2)cc1Cl (stereo not drawn) [Compound 5, 2-(3-azadicyclo[3.1.0]hexan-3-yl)-4-(3-chloro-4-methoxy-benzyloxy)-N-[(5-methylpyrazin-2-yl)methyl]pyrimidine-5-carboxamide] | 0.529 nM |  |  |
| COc1ccc(COc2nc(N3CC4CC4C3)ncc2C(=O)NCc2ccc(F)cc2)cc1Cl (stereo not drawn) [Compound 6, 2-(3-azadicyclo[3.1.0]hexan-3-yl)-4-(3-chloro-4-methoxy-benzyloxy)-N-(4-fluorobenzyl)pyrimidine-5-carboxamide] | 0.075 nM | 104 min |  |
| COc1ccc(COc2nc(N3CC4CC4C3)ncc2C(=O)N[C@H]2CC[C@H](O)CC2)cc1Cl (stereo partly drawn) [Compound 7, 2-(3-azadicyclo[3.1.0]hexan-3-yl)-4-(3-chloro-4-methoxy-benzyloxy)-N-[(trans)-4-hydroxycyclohexyl]pyrimidine-5-carboxamide] | 0.739 nM |  | Effects on penis length, AUC (mm × min) (New Zealand rabbits; [6]): 191.5 mm × min; half-life ([2]; iv, 2 mg/kg): 61.2 min; half-life ([2]; po, 4 mg/kg): 95.4 min |
| COc1ccc(COc2nc(N3CCC4(CC3)CC4)ncc2C(=O)NCc2ncccn2)cc1Cl [Compound 8, 4-(3-chloro-4-methoxybenzyloxy)-N-(pyrimidin-2-ylmethyl)-2-(6-azaspiro[2.5]octan-6-yl)pyrimidine-5-carboxamide] | 0.476 nM | 80.4 min |  |
| COc1ccc(COc2nc(N3CCC4(CC3)CC4)ncc2C(=O)NCc2ccccn2)cc1Cl [Compound 9, 4-(3-chloro-4-methoxybenzyloxy)-N-(pyridin-2-ylmethyl)-2-(6-azaspiro[2.5]octan-6-yl)pyrimidine-5-carboxamide] | 0.186 nM |  |  |
| COc1ccc(COc2nc(N3CCC4(CC3)CC4)ncc2C(=O)NCc2ccccc2)cc1Cl [Compound 10, N-benzyl-4-(3-chloro-4-methoxybenzyloxy)-2-(6-azaspiro[2.5]octan-6-yl)pyrimidine-5-carboxamide] | 1.14 nM | 141 min |  |
| COc1ccc(COc2nc(N3CCC4(CC3)CC4)ncc2C(=O)NCCN2CCOCC2)cc1Cl [Compound 11, 4-(3-chloro-4-methoxybenzyloxy)-N-(2-morpholinylethyl)-2-(6-azaspiro[2.5]octan-6-yl)pyrimidine-5-carboxamide] | 0.935 nM |  |  |
| COc1ccc(COc2nc(N3CCC4(CC3)CC4)ncc2C(=O)N[C@H]2CC[C@H](O)CC2)cc1Cl [Compound 12, 4-(3-chloro-4-methoxybenzyloxy)-N-[(trans)-4-hydroxycyclohexyl]-2-(6-azaspiro[2.5]octan-6-yl)pyrimidine-5-carboxamide] | 0.719 nM | 86.4 min | half-life ([2]; po, 1 mg/kg): 116 min |
| COc1ccc(COc2nc(N3CC4CC4C3)ncc2C(=O)NCCN2CCOCC2)cc1Cl (stereo not drawn) [Compound 13, 2-(3-azadicyclo[3.1.0]hexan-3-yl)-4-(3-chloro-4-methoxy-benzyloxy)-N-(2-morpholinylethyl)pyrimidine-5-carboxamide] | 0.213 nM |  |  |
| COc1ccc(COc2nc(N3CCCC34CC4)ncc2C(=O)NCc2ccccc2)cc1Cl [Compound 14, N-benzyl-4-(3-chloro-4-methoxybenzyloxy)-2-(4-azaspiro[2.4]heptan-4-yl)-pyrimidine-5-carboxamide] | 1.98 nM | 133 min | Effects on penis length, AUC (mm × min) (New Zealand rabbits; [6]): 290.1 mm × min |
| COc1ccc(COc2nc(N3CCC4(CC4)C3)ncc2C(=O)NCc2ccccc2)cc1Cl [Compound 15, N-benzyl-4-(3-chloro-4-methoxybenzyloxy)-2-(5-azaspiro[2.4]heptan-5-yl)-pyrimidine-5-carboxamide] | 0.119 nM | 199 min | Effects on penis length, AUC (mm × min) (New Zealand rabbits; [7]): 339.3 mm × min |
| COc1ccc(COc2nc(N3CCC4(CC4)C3)ncc2C(=O)NCc2ccc(F)cc2)cc1Cl [Compound 17, 4-(3-chloro-4-methoxybenzyloxy)-N-(4-fluorobenzyl)-2-(5-azaspiro[2.4]heptan-5-yl)pyrimidine-5-carboxamide] | 2.08 nM | 98.4 min | Effects on penis length, AUC (mm × min) (New Zealand rabbits; [5]): 300.9 mm × min; half-life ([2]; po, 2 mg/kg): 196 min |
| COc1ccc(COc2nc(N3CCC4(CC4)C3)ncc2C(=O)NCc2ncccn2)cc1Cl [Compound 18, 4-(3-chloro-4-methoxybenzyloxy)-N-(pyrimidin-2-ylmethyl)-2-(5-azaspiro[2.4]heptan-5-yl)-pyrimidine-5-carboxamide] | 1.44 nM |  |  |
| COc1ccc(COc2nc(N3CCC4(CC4)C3)ncc2C(=O)N[C@H]2CC[C@H](O)CC2)cc1Cl [Compound 19, 4-(3-chloro-4-methoxybenzyloxy)-N-[(trans)-4-hydroxycyclohexyl]-2-(5-azaspiro[2.4]heptan-5-yl)-pyrimidine-5-carboxamide] | 4.08 nM | 70.2 min | Effects on penis length, AUC (mm × min) (New Zealand rabbits; [4]): 523.3 mm × min; half-life ([2]; po, 2 mg/kg): 118 min |
| COc1ccc(COc2nc(N3CCCC34CC4)ncc2C(=O)N[C@H]2CC[C@H](O)CC2)cc1Cl [Compound 20, 4-(3-chloro-4-methoxybenzyloxy)-N-[(trans)-4-hydroxycyclohexyl]-2-(4-azaspiro[2.4]heptan-4-yl)pyrimidine-5-carboxamide] |  | 52.2 min |  |
| CCCc1nn(C)c2c(=O)[nH]c(-c3cc(S(=O)(=O)N4CCN(C)CC4)ccc3OCC)nc12 [Sildenafil] |  |  | inhibition of PDE-6 (PDE-6): inhibit PDE-6 to some extent |
| CN1CC(=O)N2[C@H](c3ccc4c(c3)OCO4)c3[nH]c4ccccc4c3C[C@@H]2C1=O [Tadalafil] |  |  | half-life in human body [1]: about 16 h |
| CCCc1nc(C)c2c(=O)[nH]c(-c3cc(S(=O)(=O)N4CCN(CC)CC4)ccc3OCC)nn12 [Vardenafil] |  |  | inhibition of PDE-6 (PDE-6): inhibit PDE-6 to some extent |
